From US12030835B2, “Substituted amide compounds useful as farnesoid X receptor modulators” (BRISTOL-MYERS SQUIBB COMPANY, priority 2019, dated 2024)

target: T1, human FXR (Homo sapiens, UniProt Q96RI1); assay: transient human FXR/Gal4-luciferase reporter assay; format: cell-based; settings: Gal4-hFXR (ligand binding domain) fusion transiently transfected in HEK293 Gal4-luciferase reporter cells; overnight incubation; response as percentage of 8 μM GW-4064 control
T1 construct: expressed in transfected cells
T1 sequence (Q96RI1 262-486 limits assumed): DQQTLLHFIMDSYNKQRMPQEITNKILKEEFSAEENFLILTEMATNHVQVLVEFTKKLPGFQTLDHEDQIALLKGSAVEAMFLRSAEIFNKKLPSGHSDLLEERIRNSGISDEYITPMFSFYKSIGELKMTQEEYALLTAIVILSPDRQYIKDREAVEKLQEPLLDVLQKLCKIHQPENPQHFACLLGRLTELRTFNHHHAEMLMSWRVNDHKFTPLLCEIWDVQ
Protocol: A Gal4-hFXR fusion construct reporter system was used as the primary assay to characterize compound activity. A construct including 5 copies of the Gal4 promoter response element upstream of a firefly luciferase reporter cDNA was stably expressed in HEK293 cells. This reporter cell line was maintained in Dulbecco's Modified Eagle's medium (DMEM; Gibco) supplemented with 1% penicillin-streptomycin (P/S) solution, 500 μg/ml Zeocin and 10% charcoal/dextran-treated fetal bovine serum (cs-FBS) at 37° C. in a humidified 5% CO2 atmosphere. Another plasmid was constructed in which the human cytomegalovirus promoter in the pcDNA3.1 vector directs the expression of the cDNA encoding a fusion protein comprised of the DNA binding domain from the Gal4 transcription factor fused to the ligand binding domain from human FXR.
The day prior to transfection, the reporter cells in culture are detached from the plate with trypsin and plated into a T75 flask at a sufficient density to achieve approximately 90% confluence the next morning. The transfection reagents are prepared by separately diluting 25 μg of the pcDNA3.1-Gal4-FXR plasmid into 1.87 mL of Opti-MEM (Thermo-Fisher), and 40 μL of Lipofectamine 2000 (Thermo-Fisher) into 1.87 mL of Opti-MEM, and then adding the diluted DNA solution into the diluted Lipofectamine 2000 solution and incubating at room temperature for 15-20 minutes. The mixture is further diluted with 10 ml of a solution comprised of DMEM, 10% cs-FBS, and 1% P/S immediately prior to transferring to the cells. The maintenance culture media is aspirated from the cells and the final transfection mixture is added before the cells are incubated overnight at 37° C. in a humidified 5% CO2 atmosphere. This protocol can be scaled up, and the transiently transfected cells can be cryopreserved in an assay-ready format.
For compound testing, 100 nL of the compounds (serial dilutions in DMSO) are dispensed with an Echo acoustic dispenser (Labcyte) into the wells of a Corning/Costar clear bottom 384-well white plate. The transfected cells are harvested, counted, and diluted such that 10-25,000 cells in 25 μL are plated into each well of the 384-well compound assay plate. The compound-treated cells are incubated overnight at 37° C. in a humidified 5% CO2 atmosphere. The next morning 25 μL of Steady-Glo (Promega) are added to each well of the plate, the mixture is incubated for 15 min. with shaking, and luminescence is measured on an Envision (Perkin Elmer) plate reader.

| Structure (SMILES) | EC50 |
| --- | --- |
| COC(=O)/C=C/c1cccc(N(C(=O)C2CCCCC2)C(C)C23CCC(c4nc(C)no4)(CC2)CC3)c1 (single isomer, unassigned) [Example 46, Methyl (E)-3-(3-(N-(1-(4-(3-methyl-1,2,4-oxadiazol-5-yl)bicyclo[2.2.2]octan-1-yl)ethyl)cyclohexanecarboxamido)phenyl)acrylate] | 302 nM |
| COC(=O)/C=C/c1cccc(N(C(=O)C2CCCCC2)C(C)C23CCC(c4nc(C)no4)(CC2)CC3)c1 (single isomer, unassigned) [Example 47, Methyl (E)-3-(3-(N-(1-(4-(3-methyl-1,2,4-oxadiazol-5-yl)bicyclo[2.2.2]octan-1-yl)ethyl)cyclohexanecarboxamido)phenyl)acrylate] | 152 nM |
| COC(=O)/C=C/c1cccc(N(CC23CCC(c4ccc(N(C)C)cc4)(CC2)CC3)C(=O)C2CCCCC2)c1 [Example 1, Methyl (E)-3-(3-(N-((4-(4-(dimethylamino)phenyl)bicyclo[2.2.2]octan-1-yl)methyl)cyclohexanecarboxamido)phenyl)acrylate] | 78 nM |
| CN(C)c1ccc(C23CCC(CN(C(=O)C4CCCCC4)c4cccc(/C=C/C(=O)O)c4)(CC2)CC3)cc1 [Example 2, (E)-3-(3-(N-((4-(4-(dimethylamino)phenyl)bicyclo[2.2.2]octan-1-yl)methyl)cyclohexanecarboxamido)phenyl)acrylic Acid] | 1520 nM |
| COC(=O)/C=C/c1cccc(N(CC23CCC(c4ccc(N5CCOCC5)cc4)(CC2)CC3)C(=O)C2CCCCC2)c1 [Example 3, (E)-methyl 3-(3-(N-((4-(4-morpholinophenyl)bicyclo[2.2.2]octan-1-yl)methyl)cyclohexanecarboxamido)phenyl)acrylate] | 165 nM |
| COC(=O)/C=C/c1cccc(N(CC23CCC(c4ccc(N5CCCC5)cc4)(CC2)CC3)C(=O)C2CCCCC2)c1 [Example 4, (E)-methyl 3-(3-(N-((4-(4-(pyrrolidin-1-yl)phenyl)bicyclo[2.2.2]octan-1-yl)methyl)cyclohexanecarboxamido)phenyl)acrylate] | 520 nM |
| COC(=O)/C=C/c1cccc(N(CC23CCC(c4ccc(N(C)C)cc4)(CC2)CC3)C(=O)C2CCOCC2)c1 [Example 6, Methyl (E)-3-(3-(N-((4-(4-(dimethylamino)phenyl)bicyclo[2.2.2]octan-1-yl)methyl)tetrahydro-2H-pyran-4-carboxamido)phenyl)acrylate] | 212 nM |
| COC(=O)/C=C/c1cccc(N(CC23CCC(c4ccccc4)(CC2)CC3)C(=O)C2CCCCC2)c1 [Example 7, Methyl (E)-3-(3-(N-((4-phenylbicyclo[2.2.2]octan-1-yl)methyl)cyclohexanecarboxamido)phenyl)acrylate] | 395 nM |
| COC(=O)/C=C/c1cccc(N(CC23CCC(c4ccc5c(cnn5C)c4)(CC2)OC3)C(=O)C2CCOCC2)c1 [Example 8, (E)-Methyl 3-(3-(N-((1-(1-methyl-1H-indazol-5-yl)-2-oxabicyclo[2.2.2]octan-4-yl)methyl)tetrahydro-2H-pyran-4-carboxamido)phenyl)acrylate] | 1600 nM |
| COC(=O)/C=C/c1cccc(N(CC23CCC(c4ccc5c(cnn5C)c4)(CC2)OC3)C(=O)C2CCN(C)CC2)c1 [Example 9, (E)-Methyl 3-(3-(1-methyl-N-((1-(1-methyl-1H-indazol-5-yl)-2-oxabicyclo[2.2.2]octan-4-yl)methyl)piperidine-4-carboxamido)phenyl)acrylate] | 4720 nM |
| COC(=O)/C=C/c1cccc(N(CC23CCC(c4ccc(OC)cc4)(CC2)OC3)C(=O)C2CCCCC2)c1 [Example 10, Methyl (E)-3-(3-(N-((1-(4-methoxyphenyl)-2-oxabicyclo[2.2.2]octan-4-yl)methyl)cyclohexanecarboxamido)phenyl)acrylate] | 319 nM |
| COC(=O)C1=Cc2cccc(N(CC34CCC(c5ccc(N6CCOCC6)cc5)(CC3)CC4)C(=O)C3CCCCC3)c2CC1 [Example 11, Methyl 5-(N-((4-(4-morpholinophenyl)bicyclo[2.2.2]octan-1-yl)methyl)cyclohexanecarboxamido)-3,4-dihydronaphthalene-2-carboxylate] | 2740 nM |
| COC(=O)C1=Cc2cccc(N(CC34CCC(c5ccc(N(C)C)cc5)(CC3)CC4)C(=O)C3CCCCC3)c2CC1 [Example 12, methyl 5-(N-((4-(4-(dimethylamino)phenyl)bicyclo[2.2.2]octan-1-yl)methyl)cyclohexanecarboxamido)-3,4-dihydronaphthalene-2-carboxylate] | 2580 nM |
| CCN(CC)c1ccc(C23CCC(CN(C(=O)C4CCCCC4)c4cccc5c4CCC(C(=O)OC)=C5)(CC2)CC3)cc1 [Example 13, methyl 5-(N-((4-(4-(diethylamino)phenyl)bicyclo[2.2.2]octan-1-yl)methyl)cyclohexanecarboxamido)-3,4-dihydronaphthalene-2-carboxylate] | 912 nM |
| COC(=O)/C=C(\C)c1cccc(N(CC23CCC(c4ccc(N5CCOCC5)cc4)(CC2)CC3)C(=O)C2CCCCC2)c1 [Example 14, Methyl (E)-3-(3-(N-((4-(4-morpholinophenyl)bicyclo[2.2.2]octan-1-yl)methyl)cyclohexanecarboxamido)phenyl)but-2-enoate] | 1150 nM |
| COC(=O)/C=C/c1cccc(N(CC23CCC(c4ccc(OC)cc4)(CC2)CC3)C(=O)C2CCCCC2)c1 [Example 15, Methyl (E)-3-(3-(N-((4-(4-methoxyphenyl)bicyclo[2.2.2]octan-1-yl)methyl)cyclohexanecarboxamido)phenyl)acrylate] | 243 nM |
| COC(=O)/C=C(\C)c1cccc(N(CC23CCC(c4ccc(OC)cc4)(CC2)CC3)C(=O)C2CCCCC2)c1 [Example 16, Methyl (E)-3-(3-(N-((4-(4-methoxyphenyl)bicyclo[2.2.2]octan-1-yl)methyl)cyclohexanecarboxamido)phenyl)but-2-enoate] | 576 nM |
| COc1ccc(C23CCC(CN(C(=O)C4CCCCC4)c4cccc5c4CCC(C(=O)O)=C5)(CC2)CC3)cc1 [Example 17, 5-(N-((4-(4-methoxyphenyl)bicyclo[2.2.2]octan-1-yl)methyl)cyclohexanecarboxamido)-3,4-dihydronaphthalene-2-carboxylic Acid] | 2240 nM |
| COC(=O)C1=Cc2cccc(N(CC34CCC(c5ccc(OC)cc5)(CC3)CC4)C(=O)C3CCCCC3)c2CC1 [Example 18, Methyl 5-(N-((4-(4-methoxyphenyl)bicyclo[2.2.2]octan-1-yl)methyl)cyclohexanecarboxamido)-3,4-dihydronaphthalene-2-carboxylate] | 1810 nM |
| COC(=O)/C=C(\C)c1cccc(N(CC23CCC(c4nc(C)no4)(CC2)CC3)C(=O)C2CCCCC2)c1 [Example 19, Methyl (E)-3-(3-(N-((4-(3-methyl-1,2,4-oxadiazol-5-yl)bicyclo[2.2.2]octan-1-yl)methyl)cyclohexanecarboxamido)phenyl)but-2-enoate] | 551 nM |
| COC(=O)/C=C/c1cccc(N(CC23CCC(c4nc(C)no4)(CC2)CC3)C(=O)C2CCCCC2)c1 [Example 20, Methyl (E)-3-(3-(N-((4-(3-methyl-1,2,4-oxadiazol-5-yl)bicyclo[2.2.2]octan-1-yl)methyl)cyclohexanecarboxamido)phenyl)acrylate] | 56 nM |
| COC(=O)/C=C/c1cccc(N(CC23CCC(c4nc(C)no4)(CC2)CC3)C(=O)C2CC2)c1 [Example 21, methyl (E)-3-(3-(N-((4-(3-methyl-1,2,4-oxadiazol-5-yl)bicyclo[2.2.2]octan-1-yl)methyl)cyclopropanecarboxamido)phenyl) acrylate] | 2440 nM |
| COC(=O)/C=C/c1cccc(N(CC23CCC(c4nc(C)no4)(CC2)CC3)C(=O)C(C)C)c1 [Example 22, methyl (E)-3-(3-(N-((4-(3-methyl-1,2,4-oxadiazol-5-yl)bicyclo[2.2.2]octan-1-yl)methyl)isobutyramido)phenyl)acrylate] | 849 nM |
| COC(=O)/C=C/c1cccc(N(CC23CCC(c4nc(C)no4)(CC2)CC3)C(=O)C2CCOCC2)c1 [Example 23, Methyl (E)-3-(3-(N-((4-(3-methyl-1,2,4-oxadiazol-5-yl)bicyclo[2.2.2]octan-1-yl)methyl)tetrahydro-2H-pyran-4-carboxamido)phenyl)acrylate] | 920 nM |
